Laboratory results reported in PubChem BioAssay (NCI).
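Abbreviation: GI50, concentration required for 50% inhibition of growth. TGI is the concentration that stops growth completely.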

Columns and labels:
Test in all cases: growth of human tumour cells (NCI), 384-well format
UACC-62 melanoma = system: UACC-62 melanoma
ACHN renal = system: ACHN renal
KM12 colon = system: KM12 colon
SNB-75 CNS = system: SNB-75 CNS
T-47D breast = system: T-47D breast
OVCAR-3 ovarian = system: OVCAR-3 ovarian
NCI/ADR-RES ovarian = system: NCI/ADR-RES ovarian
CCRF-CEM leukemia = system: CCRF-CEM leukemia
BT-549 breast = system: BT-549 breast
SW-620 colon = system: SW-620 colon
MDA-MB-468 breast = system: MDA-MB-468 breast
SF-295 CNS = system: SF-295 CNS
UACC-257 melanoma = system: UACC-257 melanoma
PC-3 prostate = system: PC-3 prostate
DU-145 prostate = system: DU-145 prostate
MCF7 breast = system: MCF7 breast
UO-31 renal = system: UO-31 renal
SN12C renal = system: SN12C renal
HOP-92 NSCLC = system: HOP-92 NSCLC
HT29 colon = system: HT29 colon
IGROV1 ovarian = system: IGROV1 ovarian
MDA-MB-435 melanoma = system: MDA-MB-435 melanoma
OVCAR-4 ovarian = system: OVCAR-4 ovarian
K-562 leukemia = system: K-562 leukemia
HCT-15 colon = system: HCT-15 colon
HL-60(TB) leukemia = system: HL-60(TB) leukemia
M14 melanoma = system: M14 melanoma
LOX IMVI melanoma = system: LOX IMVI melanoma
SK-OV-3 ovarian = system: SK-OV-3 ovarian
TK-10 renal = system: TK-10 renal
A549 NSCLC = system: A549 NSCLC
HS 578T breast = system: HS 578T breast
NCI-H460 NSCLC = system: NCI-H460 NSCLC
HCC-2998 colon = system: HCC-2998 colon
SK-MEL-28 melanoma = system: SK-MEL-28 melanoma
OVCAR-8 ovarian = system: OVCAR-8 ovarian
COLO 205 colon = system: COLO 205 colon
MDA-MB-231 breast = system: MDA-MB-231 breast
SNB-19 CNS = system: SNB-19 CNS
SK-MEL-5 melanoma = system: SK-MEL-5 melanoma
NCI-H23 lung = system: NCI-H23 lung
NCI-H322M lung = system: NCI-H322M lung
EKVX NSCLC = system: EKVX NSCLC
SF-268 CNS = system: SF-268 CNS
A498 renal = system: A498 renal
HOP-62 NSCLC = system: HOP-62 NSCLC
CAKI-1 renal = system: CAKI-1 renal
MOLT-4 leukemia = system: MOLT-4 leukemia
SR leukemia = system: SR leukemia
NCI-H522 lung = system: NCI-H522 lung
RXF 393 renal = system: RXF 393 renal
NCI-H226 lung = system: NCI-H226 lung
OVCAR-5 ovarian = system: OVCAR-5 ovarian
U251 glioblastoma = system: U251 glioblastoma
MALME-3M melanoma = system: MALME-3M melanoma
786-0 renal = system: 786-0 renal
RPMI-8226 leukemia = system: RPMI-8226 leukemia
SF-539 CNS = system: SF-539 CNS

Compound: CN(C[C@@H]1COCCO1)S(=O)(=O)Nc1ccc2ccc3ncc(-c4cnn(C)c4)cc3c(=O)c2c1
- GI50 (UACC-62 melanoma): 3.36 µM
- TGI (UACC-62 melanoma): > 100 µM
- GI50 (ACHN renal): 2.56 µM
- TGI (ACHN renal): > 100 µM
- GI50 (KM12 colon): 0.31 µM
- TGI (KM12 colon): > 100 µM
- GI50 (SNB-75 CNS): 2.18 µM
- TGI (SNB-75 CNS): 21.5 µM
- GI50 (T-47D breast): 3.5 µM
- TGI (T-47D breast): 59.5 µM
- GI50 (OVCAR-3 ovarian): 12.3 µM
- TGI (OVCAR-3 ovarian): > 100 µM
- GI50 (NCI/ADR-RES ovarian): 3.56 µM
- TGI (NCI/ADR-RES ovarian): 25.5 µM
- GI50 (CCRF-CEM leukemia): 3.12 µM
- TGI (CCRF-CEM leukemia): 9.46 µM
- GI50 (BT-549 breast): 2.1 µM
- TGI (BT-549 breast): 45.5 µM
- GI50 (SW-620 colon): 7.12 µM
- TGI (SW-620 colon): > 100 µM
- GI50 (MDA-MB-468 breast): 1.63 µM
- TGI (MDA-MB-468 breast): 5.2 µM
- GI50 (SF-295 CNS): 1.12 µM
- TGI (SF-295 CNS): 10.9 µM
- GI50 (UACC-257 melanoma): > 100 µM
- TGI (UACC-257 melanoma): > 100 µM
- GI50 (PC-3 prostate): 5.71 µM
- TGI (PC-3 prostate): > 100 µM
- GI50 (DU-145 prostate): 5.46 µM
- TGI (DU-145 prostate): > 100 µM
- GI50 (MCF7 breast): 5.9 µM
- TGI (MCF7 breast): > 100 µM
- GI50 (UO-31 renal): 8.88 µM
- TGI (UO-31 renal): > 100 µM
- GI50 (SN12C renal): 1.64 µM
- TGI (SN12C renal): 8.8 µM
- GI50 (HOP-92 NSCLC): 2.08 µM
- TGI (HOP-92 NSCLC): 10.8 µM
- GI50 (HT29 colon): 14.4 µM
- TGI (HT29 colon): > 100 µM
- GI50 (IGROV1 ovarian): 2.13 µM
- TGI (IGROV1 ovarian): 9 µM
- GI50 (MDA-MB-435 melanoma): 21.6 µM
- TGI (MDA-MB-435 melanoma): > 100 µM
- GI50 (OVCAR-4 ovarian): 3.34 µM
- TGI (OVCAR-4 ovarian): 61 µM
- GI50 (K-562 leukemia): 6.92 µM
- TGI (K-562 leukemia): > 100 µM
- GI50 (HCT-15 colon): 3.09 µM
- TGI (HCT-15 colon): > 100 µM
- GI50 (HL-60(TB) leukemia): 3.32 µM
- TGI (HL-60(TB) leukemia): 21 µM
- GI50 (M14 melanoma): 3.67 µM
- TGI (M14 melanoma): > 100 µM
- GI50 (LOX IMVI melanoma): 5.53 µM
- TGI (LOX IMVI melanoma): > 100 µM
- GI50 (SK-OV-3 ovarian): 1.45 µM
- TGI (SK-OV-3 ovarian): 14.5 µM
- GI50 (TK-10 renal): 8.38 µM
- TGI (TK-10 renal): > 100 µM
- GI50 (A549 NSCLC): 8.08 µM
- TGI (A549 NSCLC): > 100 µM
- GI50 (HS 578T breast): 1.99 µM
- TGI (HS 578T breast): 8.1 µM
- GI50 (NCI-H460 NSCLC): 3.45 µM
- TGI (NCI-H460 NSCLC): 62.1 µM
- GI50 (HCC-2998 colon): 39.6 µM
- TGI (HCC-2998 colon): > 100 µM
- GI50 (SK-MEL-28 melanoma): > 100 µM
- TGI (SK-MEL-28 melanoma): > 100 µM
- GI50 (OVCAR-8 ovarian): 6.02 µM
- TGI (OVCAR-8 ovarian): > 100 µM
- GI50 (COLO 205 colon): 24.4 µM
- TGI (COLO 205 colon): > 100 µM
- GI50 (MDA-MB-231 breast): 8.45 µM
- TGI (MDA-MB-231 breast): > 100 µM
- GI50 (SNB-19 CNS): 27.2 µM
- TGI (SNB-19 CNS): > 100 µM
- GI50 (SK-MEL-5 melanoma): 2.61 µM
- TGI (SK-MEL-5 melanoma): 19.2 µM
- GI50 (NCI-H23 lung): 0.588 µM
- TGI (NCI-H23 lung): 5.43 µM
- GI50 (NCI-H322M lung): 4.99 µM
- TGI (NCI-H322M lung): > 100 µM
- GI50 (EKVX NSCLC): 16.2 µM
- TGI (EKVX NSCLC): > 100 µM
- GI50 (SF-268 CNS): 5.68 µM
- TGI (SF-268 CNS): > 100 µM
- GI50 (A498 renal): 0.808 µM
- TGI (A498 renal): 62.5 µM
- GI50 (HOP-62 NSCLC): 5.14 µM
- TGI (HOP-62 NSCLC): > 100 µM
- GI50 (CAKI-1 renal): 1.89 µM
- TGI (CAKI-1 renal): > 100 µM
- GI50 (MOLT-4 leukemia): 1.58 µM
- TGI (MOLT-4 leukemia): 3.03 µM
- GI50 (SR leukemia): 2.49 µM
- TGI (SR leukemia): 7.48 µM
- GI50 (NCI-H522 lung): 2.68 µM
- TGI (NCI-H522 lung): 9.07 µM
- GI50 (RXF 393 renal): 5.6 µM
- TGI (RXF 393 renal): > 100 µM
- GI50 (NCI-H226 lung): 1.77 µM
- TGI (NCI-H226 lung): > 100 µM
- GI50 (OVCAR-5 ovarian): 24 µM
- TGI (OVCAR-5 ovarian): > 100 µM
- GI50 (U251 glioblastoma): 6.34 µM
- TGI (U251 glioblastoma): > 100 µM
- GI50 (MALME-3M melanoma): 3.48 µM
- TGI (MALME-3M melanoma): 73.6 µM
- GI50 ([…]-0 renal): 5.58 µM
- TGI (786-0 renal): > 100 µM
- GI50 (RPMI-8226 leukemia): 1.36 µM
- TGI (RPMI-8226 leukemia): 5.21 µM
- GI50 (SF-539 CNS): 1.63 µM
- TGI (SF-539 CNS): 15.2 µM
